“Also recorded” adds a separate entry of the source. Read-outs that look alike come from different tables or passages of the source.

Results on two compounds are retold here after article PMC11989212, “Experimental Conditions to Retrieve Intrinsic Cooperativity α Directly from Single Binding Assay Data Exemplified by the Ternary Complex Formation of FKBP12, MAPRE1 and Macrocyclic Molecular Glues” (International Journal of Molecular Sciences, 2025).

The target of assay [1] is FKBP12 in the presence of MAPRE1 (Homo sapiens, UniProt P62942+Q15691). The assay can be described thus: Spectral shift target engagement assay, binding to FKBP12 in the presence of 10 μM MAPRE1 (ternary). An excerpt:
(§1) Our method of choice is the spectral shift method, which monitors binding events on the target isothermally and in equilibrium via an environment-sensitive near-infrared fluorophore. In the case of target engagement, either the proximity of the ligand towards the dye or structural changes occurring in the target as a result of binding lead to a change in the chemical environment of the fluorophore. Those changes affect the physiochemical properties of the reporter fluorophore and translate into either blue or red shifts (or peak broadening) of emission peaks upon ligand binding, which can be sensitively monitored by simultaneously recording the fluorescence at two wavelengths (i.e., at 650 nm and 670 nm). Calculating the ratio between the two fluorescence channels then allows to monitor subtle emission shifts that occur as a result of target engagement. Affinity measurements can then be performed by recording the spectral shift as a function of ligand concentration.
(§2) Binding studies through FKBP12: To monitor the binding of R,--SLF-11 by the stronger binding FKBP12 in the absence and in the presence of 10 μM MAPRE1 via %Cbound, binary and %Cbound, ternary, respectively, the concentration of reversibly NTA-labeled FKBP12 was limited to [Ctot] = 40 nM. […] In contrast to the experimental setup in the previous two binding experiments with monitoring through the weaker binding protein MAPRE1, where the applied protein concentrations were optimally chosen, this is not the case for the binding experiment through the stronger binder FKBP12. First of all, the applied excess of T with [Ttot] = 10 μM is roughly 20000-fold off of the proposed 100 times KT,1 threshold, which would correspond to 180 mM. Only under such excess conditions of T can the equilibrium of forming TL under the constraint that all ligand L is bound to T be reached to ensure that [Ltot] approaches the “ligand” concentration [TL]. […] If KC,2 is sufficiently high, the 20 nM deviation to correct for the protein concentration could be neglected. However, the resulting calculated value for KC,2 is 0.023 nM, accounting for the cooperativity α = 10,405 and KC,1 = 234 nM as derived by the MAPRE1 experiment. This value is far below the applied protein concentration of [Ctot] = 40 nM and makes it infeasible to estimate KC,2 from the EC50 of the %Cbound, ternary curve. Consequently, the EC50 shifts, meaning the apparent cooperativity, from monitoring the binding by the stronger binding protein C are diverging from the underlying intrinsic cooperativity α. […] The deviation of calculated (254 nM/24.2 nM = 10.5) and measured apparent cooperativity (254 nM/66 nM = 3.8) can be explained by a negative cooperativity induced by the His6-NTA tag of FKBP12. Studies to lower [Ctot] and identify a better position for the spectral shift tag on FKBP12 are ongoing (Figure 6a).
(§3) His-tagged FKBP12 was labeled using the His-Tag Labeling Kit RED-tris-NTA 2nd Generation (MO-L018; NanoTemper Technologies GmbH). The affinity between NTA dye and the His-tag of FKBP12 was determined as 7 nM. MAPRE1 was labeled using the Protein Labeling Kit RED-NHS 2nd Generation (MO-L011; NanoTemper Technologies GmbH). In brief, 10 µM of MAPRE1 was incubated with a 3-fold molar excess of fluorophore for 30 min. The unreacted fluorophore was removed by performing a size exclusion purification (B-column). Collecting the protein fraction yielded 1.8 µM labeled MAPRE1, with a degree of labeling of 0.8, as determined on a Nanodrop.
(§4) A 1:2 dilution series of all compounds (starting from the 10 mM stock concentration) was prepared in pure DMSO. Each concentration was diluted 25-fold with assay buffer (20 mM HEPES, pH 7.4, 150 mM NaCl, 1 mM DTT (all from Carl Roth, Karlsruhe, Germany), and 0.01% Pluronic F-127 (Sigma Aldrich, Taufkirchen, Germany)). Next, 10 µL from each of the prepared ligand dilutions was transferred into an empty well on a Dianthus Microwell Plate (DI-P001A). […]

For assay [2], the system named is FKBP12:R,S-SLF-X:MAPRE1 ternary complex. The arrangement: method as in PMID 40059881. As to conditions: TR-FRET proximity assay, reported earlier; cited from earlier work.
The target in assay [3] is T1, FKBP12 (Homo sapiens, UniProt P62942). The assay can be described thus: Spectral shift target engagement assay, binary binding to FKBP12. As to conditions: 40 nM FKBP12-NTA; for Kd: KC,1 = EC50 − [Ctot]/2.
T1 sequence (P62942 whole entry, species assumed): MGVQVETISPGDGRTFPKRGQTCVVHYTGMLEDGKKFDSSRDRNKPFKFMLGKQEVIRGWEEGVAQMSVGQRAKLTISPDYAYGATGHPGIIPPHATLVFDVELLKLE
Description: as §1, §2, §3, §4

For assay [4], the target named is T2, MAPRE1 in the presence of FKBP12 (Homo sapiens, UniProt P62942+Q15691).
T2 construct: His-tag (N)
T2 sequence (P62942 whole entry, one chain of several): as the sequence (P62942 whole entry, species assumed) above
Kind of assay: Spectral shift target engagement assay, binding to MAPRE1 in the presence of 10 μM FKBP12 (ternary). As to conditions: for Ratio [Ctot]/KC,1: [Ctot] = 10 μM FKBP12.
Description: as §1
Binding study through MAPRE1: MAPRE1 was labeled via lysines using an NHS-conjugated dye. The final concentration of MAPRE1NHS (referring to [Ttot]) was 5 nM. Compounds could be titrated up to a concentration of 200 μM (referring to [Ltot]). […] However more accuracy could only be achieved at higher ligand concentrations—ideally at full target saturation. However, this was experimentally infeasible due to assay conditions (i.e., the requirement of maintaining a certain DMSO concentration or avoiding solubility issues of the ligand). Although the determined KT,1 values of binding to MAPRE1 are only approximations, their relative ranking reflects the underlying differences in the affinity of the ligands L to MAPRE1. Performing these experiments in duplicates confirmed the high signal-to-noise ratio, i.e., there was no significant deviation between the two curves, indicating a high accuracy of the interpolated EC50 values. Due to the low [Ttot] = 5 nM, this value coincides with KT,1 (1.8 mM − 0.005 mM/2 ≈ 1.8 mM). […] Consequently, KT,2 corresponds to 173 nM and not 177.5 nM.
as §3
A 1:2 dilution series of all compounds (starting from the 10 mM stock concentration) was prepared in pure DMSO. Each concentration was diluted 25-fold with assay buffer (20 mM HEPES, pH 7.4, 150 mM NaCl, 1 mM DTT (all from Carl Roth, Karlsruhe, Germany), and 0.01% Pluronic F-127 (Sigma Aldrich, Taufkirchen, Germany)). Next, 10 µL from each of the prepared ligand dilutions was transferred into an empty well on a Dianthus Microwell Plate (DI-P001A). Another 10 µL of 2-fold concentrated labeled protein (either in the absence or the presence of 20 µM counter protein, both in assay buffer then yielded the final assay concentrations. Interaction measurements were prepared in duplicates for each condition. For binary interactions of compounds with MAPRE1, a final target concentration of 5 nM and a highest ligand concentration of 50 µM was prepared. For ternary interactions of compounds and MAPRE1 in the presence of 10 µM unlabeled FKBP12, the highest ligand concentration was increased to 200 µM, the highest concentration achievable while maintaining a constant 2% DMSO concentration. For all interactions measured via FKBP12, the target was prepared at a final concentration of 40 nM, supplemented with 5 nM NTA fluorophore. […]

Assay [5] has as its target T3, MAPRE1 (Homo sapiens, UniProt Q15691).
T3 construct: His-tag (N)
T3 sequence (Q15691 1-268): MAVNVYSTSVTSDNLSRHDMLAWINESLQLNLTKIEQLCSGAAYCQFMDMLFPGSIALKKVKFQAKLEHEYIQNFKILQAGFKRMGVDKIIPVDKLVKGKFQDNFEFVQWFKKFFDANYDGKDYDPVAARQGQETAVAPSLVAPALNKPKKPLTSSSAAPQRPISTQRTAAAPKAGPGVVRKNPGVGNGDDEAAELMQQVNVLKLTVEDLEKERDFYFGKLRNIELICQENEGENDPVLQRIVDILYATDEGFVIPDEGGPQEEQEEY
The arrangement: method as in PMID 40059881. As to conditions: previous NMR studies; read-out: affinity for MAPRE1; cited from earlier work.

For assay [6], the target named is T1, FKBP12. The arrangement: method as in PMID 40059881. Particulars: TR-FRET competitive binding assay from previous work; read-out: EC50_FKBP12; cited from earlier work. For orientation: In TR-FRET formats the signal depends on donor and acceptor labels being close together.
In assay [7] the target is T3, MAPRE1. Kind of assay: Spectral shift target engagement assay, binary binding to MAPRE1. As to conditions: up to [Ltot] = 200 μM.
[8] abbreviates: 40 nM FKBP12-NTA, 10 μM MAPRE1, read-out: EC50 of the %Cbound, ternary curve (measured).

Chain of FKBP12 in the presence of MAPRE1 (P62942 whole entry, one chain of several): as the sequence (P62942 whole entry, species assumed) above

`C=C1CCN2C(=O)COc3cccc(c3)C(CCc3ccc(OC)c(OC)c3)OC(=O)C3CCCCN3C(=O)C(=O)C(C)(C)COC(=O)C(C)NC(=O)C2C1` (stereo not shown) [R,S-SLF-1a]: the EC50 in assay [1] (setting [8]) is 0.045 µM; in assay [1] (calculated with the model using α from MAPRE1 binding, read-out: calc EC50 of the %Cbound, ternary curve), 0.02 µM; at FKBP12 [3] (no MAPRE1, read-out: EC50 of the %Cbound, binary curve) it was 0.041 µM; in assay [4] (5 nM MAPRE1-NHS, 10 μM FKBP12, read-out: EC50 of the %Tbound, ternary curve), 1.03 µM; at FKBP12 [6] it was 0.23 µM. For the same compound, the “TR-FRET Recruitment Assay (%Amax)” value in assay [2] is recorded as 51%. Also, the Kd was 0.021 µM at FKBP12 [3]; 1.02 µM in assay [4] (ternary Kd, model-based ([CL] at [Ltot] = EC50), read-out: KT,2); greater than 250 µM on MAPRE1 [5]. In addition, in assay [4], the “Ratio [Ctot]/KC,1” value was 476. In assay [4] (difference between EC50 of the %Tbound, ternary curve and KT,2, [Ttot] = 5 nM), the “100 × (EC50 %Tbound ternary − 0.5 [Ttot] − KT,2)/KT,2” value came to 0.3%. Also, the “Intrinsic cooperativity α” value in assay [4] (from KC,1, KT,1 and EC50 of the %Tbound, ternary curve with the mathematical model, [Ctot] = 10,000 nM, [Ttot] = 5 nM) came to 1951.
Turning to `COc1ccc(CCC2OC(=O)C3CCCCN3C(=O)C(=O)C(C)(C)COC(=O)C(C)NC(=O)C3CC(O)CN3C(=O)COc3cccc2c3)cc1OC` (stereo not shown) [R,S-SLF-12], the “binary binding to MAPRE1 (%Tbound, binary)” value on MAPRE1 [7] is “no binding; also recorded: Neither binary nor ternary binding”. Further, the results for the EC50 (in assay [1] (setting [8]); at FKBP12 [6]) were 0.03 µM and 0.043 µM, respectively. Further, the “TR-FRET Recruitment Assay (%Amax)” value in assay [2] is listed as 0%. On FKBP12 [3], the Kd came to 0.013 µM. For the same compound, the “ternary binding to MAPRE1” value in assay [4] (10 μM FKBP12) is reported as “Neither binary nor ternary binding”. Further, the “Ratio [Ctot]/KC,1” value in assay [4] is reported as 769.
